Results reported in patent publication US20200306210A1 (ZOGENIX INTERNATIONAL LIMITED, priority 2017, published 2020).
Values joined by “and” are separate entries in the source; they are usually repeats but may differ in a detail not shown here. Identical values can stand only once. Counter-ions that a name gives are not always drawn.

Key:
[1] = test system: children and young adults with Dravet syndrome; assay: Study 1: safety (TEAEs, body weight, echocardiography); type: in vivo, Human
Protocol: The incidence of treatment-emergent adverse events (TEAEs) was monitored continuously during the study. TEAEs were graded by the investigator as mild, moderate, or severe, and related or not related to study medication. Vital signs, height, weight, and clinical laboratory evaluations were performed at each study visit. The Behavior Rating Inventory of Executive Function (BRIEF) was administered at baseline and periodically during the treatment period to assess for any effects of treatment on cognitive function. Doppler echocardiography (ECHOs) and 12-lead electrocardiography (ECGs) were performed during the screening/baseline period, after 6 weeks of treatment, and after 14 weeks of treatment at the end of the maintenance period. The ECGs and ECHOs were evaluated by two independent cardiologists who were blind to treatment randomization. In the event of disagreement, a third cardiologist arbitrated the decision.
All subjects received ZX008 or matching placebo for up to approximately 16 weeks (Titration Period=2 weeks; Maintenance Period=12 weeks; Taper/Transition Period=2 weeks) in Study 1. After completion of the Maintenance Period, eligible subjects could enroll in an open-label extension (OLE) study, after completion of the transition. […] Follow-up cardiovascular safety assessments, including ECG and ECHO, were performed 3 to 6 months following the last dose of study medication.
In the ZX008 0.2 mg/kg/day group, 5 (12.8%) subjects had weight losses ranging from 8.4% to 21.9% of body weight; the one subject with a 21.9% loss was under the guidance of a nutritionist to manage their weight during the trial, and another subject with a 15.3% loss had been diagnosed with diabetes mellitus shortly before enrolling in the study and was also being managed to lose weight. One subject in the 0.2 mg/kg/day group gained 10.3% body weight during the study. In the ZX008 0.8 mg/kg/day group, 8 (20.0%) subjects lost weight, ranging from 7.2% to 11.4% of baseline body weight. One subject in the ZX008 0.8 mg/kg/day group discontinued citing decreased appetite and weight loss, among other events. The weight loss, however, amounted to less than 1 kg. There were no deaths in the study.

[2] = test system: subjects with Dravet syndrome; assay: Study 1503: open-label long-term extension, CGI-I at baseline and final visit; type: in vivo, Human
Protocol: Study 1503 was an open-label, long-term safety study of ZX008 in subjects with Dravet syndrome who successfully completed 14 weeks of treatment in 1501, 1502, or 1504 Cohorts 1 and 2. […] CGI-S(baseline scores) were determined at entry into 1503 (i.e., after completing a blinded 16 week trial) and then again at each patient's final visit. FIGS. 7 and 8, and Tables 3 and 4 present numbers of patients having each of the 7 ratings and statistical calculations of improvements.
The CGI scale measures the change in the subject's clinical status from a specific point in time, i.e., the Baseline Period (and also referred to as the CGI-S, an initial ranking of severity). The CGI rating scale permits a global evaluation of the subject's improvement over time.

## CCNC(C)Cc1cccc(C(F)(F)F)c1 (centres unmarked) [ZX008, fenfluramine hydrochloride]
[1]
  Deaths in the study: no deaths
  Tolerability: generally well tolerated
[1]; 0.2 mg/kg/day
  At least one echocardiographic finding with trace mitral and/or trace aortic regurgitation, % of subjects: 17.9%
  At least one echocardiographic finding with trace mitral and/or trace aortic regurgitation, number of subjects: 7
  Body weight gained during the study, one subject: 10.3%
  Serious adverse events, % of subjects: 10.3%
  Serious adverse events, number of subjects: 4
  Status epilepticus (serious adverse event), % of subjects: 2.6%
  Status epilepticus (serious adverse event), number of subjects: 1
  Subjects with weight loss (change from baseline ≥7%), number: 5
  TEAEs mild to moderate in severity, % of patients among those with TEAEs: 94.6%
  TEAEs mild to moderate in severity, number of patients among those with TEAEs: 35
[1]; 0.2 mg/kg/day, hydrochloride
  Subjects with weight loss (change from baseline ≥7%), %: 12.8% and 13%
[1]; 0.8 mg/kg/day
  At least one echocardiographic finding with trace mitral and/or trace aortic regurgitation, % of subjects: 22.5%
  At least one echocardiographic finding with trace mitral and/or trace aortic regurgitation, number of subjects: 9
  Serious adverse events, % of subjects: 12.5%
  Serious adverse events, number of subjects: 5
  Status epilepticus (serious adverse event), % of subjects: 5%
  Status epilepticus (serious adverse event), number of subjects: 2
  Subjects with weight loss (change from baseline ≥7%), number: 8
  TEAEs mild to moderate in severity, % of patients among those with TEAEs: 92.1%
  TEAEs mild to moderate in severity, number of patients among those with TEAEs: 35
[1]; 0.8 mg/kg/day, hydrochloride
  Subjects with weight loss (change from baseline ≥7%), %: 20%
[1]; ZX008-treated patients
  Most common non-cardiovascular adverse events: decreased appetite, diarrhea, nasopharyngitis, lethargy, somnolence, and pyrexia
[1]; each ZX008 dose group (0.2 and 0.8 mg/kg/day)
  TEAEs reported, % of subjects: 95%
[1]; ≤30 mg/day, 14-week treatment and 2-week transition, hydrochloride
  Cases of cardiac valvulopathy or pulmonary hypertension: no cases
[2]; OLE Baseline
  CGI-I investigator, 1 = Very much improved, % of subjects: (15.8) %
  CGI-I investigator, 1 = Very much improved, N of subjects: 35
  CGI-I investigator, 2 = Much improved, % of subjects: (24.4) %
  CGI-I investigator, 2 = Much improved, N of subjects: 54
  CGI-I investigator, 3 = Minimally improved, % of subjects: (20.8) %
  CGI-I investigator, 3 = Minimally improved, N of subjects: 46
  CGI-I investigator, 4 = No change, % of subjects: (32.6) %
  CGI-I investigator, 4 = No change, N of subjects: 72
  CGI-I investigator, 5 = Minimally worse, % of subjects: (5.0) %
  CGI-I investigator, 5 = Minimally worse, N of subjects: 11
  CGI-I investigator, 6 = Much worse, % of subjects: (1.4) %
  CGI-I investigator, 6 = Much worse, N of subjects: 3
  CGI-I investigator, 7 = Very much worse, % of subjects: (0.0) %
  CGI-I investigator, 7 = Very much worse, N of subjects: 0
  CGI-I investigator, Improved (1, 2, 3), %: (61.1) %
  CGI-I investigator, Much/very much improved (1, 2), %: (40.3) %
  CGI-I parent/caregiver, 1 = Very much improved, % of subjects: (16.4) %
  CGI-I parent/caregiver, 1 = Very much improved, number of subjects: 37
  CGI-I parent/caregiver, 2 = Much improved, % of subjects: (21.8) %
  CGI-I parent/caregiver, 2 = Much improved, number of subjects: 49
  CGI-I parent/caregiver, 3 = Minimally improved, % of subjects: (19.1) %
  CGI-I parent/caregiver, 3 = Minimally improved, number of subjects: 43
  CGI-I parent/caregiver, 4 = No change, % of subjects: (26.7) %
  CGI-I parent/caregiver, 4 = No change, number of subjects: 60
  CGI-I parent/caregiver, 5 = Minimally worse, % of subjects: (10.7) %
  CGI-I parent/caregiver, 5 = Minimally worse, number of subjects: 24
  CGI-I parent/caregiver, 6 = Much worse, % of subjects: (4.0) %
  CGI-I parent/caregiver, 6 = Much worse, number of subjects: 9
  CGI-I parent/caregiver, 7 = Very much worse, % of subjects: (1.3) %
  CGI-I parent/caregiver, 7 = Very much worse, number of subjects: 3
  CGI-I parent/caregiver, Improved (1, 2, 3), %: (57.3) %
  CGI-I parent/caregiver, Much/very much improved (1, 2), %: (38.2) %
[2]; OLE Baseline, N 221, 7-point scale
  CGI-I investigator rating, Median: 3.0
[2]; OLE Baseline, N 221, scale 1 very much improved to 7 very much worse
  CGI-I investigator rating, Mean: 2.9
[2]; OLE Baseline, N 225, 7-point scale
  CGI-I parent/caregiver rating, Median: 3.0
[2]; OLE Baseline, N 225, scale 1 very much improved to 7 very much worse
  CGI-I parent/caregiver rating, Mean: 3.1
[2]; OLE Final Visit
  CGI-I investigator, 1 = Very much improved, % of subjects: (27.6) %
  CGI-I investigator, 1 = Very much improved, N of subjects: 70
  CGI-I investigator, 2 = Much improved, % of subjects: (36.6) %
  CGI-I investigator, 2 = Much improved, N of subjects: 93
  CGI-I investigator, 3 = Minimally improved, % of subjects: (21.3) %
  CGI-I investigator, 3 = Minimally improved, N of subjects: 54
  CGI-I investigator, 4 = No change, % of subjects: (7.9) %
  CGI-I investigator, 4 = No change, N of subjects: 20
  CGI-I investigator, 5 = Minimally worse, % of subjects: (5.5) %
  CGI-I investigator, 5 = Minimally worse, N of subjects: 14
  CGI-I investigator, 6 = Much worse, % of subjects: (1.2) %
  CGI-I investigator, 6 = Much worse, N of subjects: 3
  CGI-I investigator, 7 = Very much worse, % of subjects: (0.0) %
  CGI-I investigator, 7 = Very much worse, N of subjects: 0
  CGI-I investigator, Improved (1, 2, 3), %: (85.4) %
  CGI-I investigator, Much/very much improved (1, 2), %: (64.2) %
  CGI-I parent/caregiver, 1 = Very much improved, % of subjects: (27.0) %
  CGI-I parent/caregiver, 1 = Very much improved, number of subjects: 67
  CGI-I parent/caregiver, 2 = Much improved, % of subjects: (35.5) %
  CGI-I parent/caregiver, 2 = Much improved, number of subjects: 88
  CGI-I parent/caregiver, 3 = Minimally improved, % of subjects: (19.8) %
  CGI-I parent/caregiver, 3 = Minimally improved, number of subjects: 49
  CGI-I parent/caregiver, 4 = No change, % of subjects: (7.7) %
  CGI-I parent/caregiver, 4 = No change, number of subjects: 19
  CGI-I parent/caregiver, 5 = Minimally worse, % of subjects: (5.2) %
  CGI-I parent/caregiver, 5 = Minimally worse, number of subjects: 13
  CGI-I parent/caregiver, 6 = Much worse, % of subjects: (4.0) %
  CGI-I parent/caregiver, 6 = Much worse, number of subjects: 10
  CGI-I parent/caregiver, 7 = Very much worse, % of subjects: (0.8) %
  CGI-I parent/caregiver, 7 = Very much worse, number of subjects: 2
  CGI-I parent/caregiver, Improved (1, 2, 3), %: (82.3) %
  CGI-I parent/caregiver, Much/very much improved (1, 2), %: (62.5) %
[2]; OLE Final Visit, n 248, 7-point scale
  CGI-I parent/caregiver rating, Median: 2.0
[2]; OLE Final Visit, n 248, scale 1 very much improved to 7 very much worse
  CGI-I parent/caregiver rating, Mean: 2.4
[2]; OLE Final Visit, n 254, 7-point scale
  CGI-I investigator rating, Median: 2.0
[2]; OLE Final Visit, n 254, scale 1 very much improved to 7 very much worse
  CGI-I investigator rating, Mean: 2.3
